Numbered stars: 1 amine (or outer) side, 2 acyl side, 3 side chain; on linkers, the order of the positions; unused ones are H or OH. Peptide text beside a SMILES is read from it. * marks the point of attachment. pNA = O=[N+]([O-])c1ccc(N*)cc1; Suc = O=C(CCC(=O)[*:2])[*:1]
Legend:
[1] = molecular target: T1, Peptidyl-prolyl cis-trans isomerase A (Homo sapiens, UniProt P62937); assay: Inhibition of fluorescent cyclosporin A binding to human CypA by TR-FRET assay
[2] = Unbound fraction in human plasma; type: ADME, cell-free
[3] = Apparent permeability across apical to basolateral side in human Caco2 cells; type: ADME, cell-based; conditions: Caco-2
[4] = Apparent permeability across basolateral to apical side in human Caco2 cells; type: ADME, cell-based; conditions: Caco-2
[5] = Distribution coefficient, logD of the compound; type: physicochemical; conditions: octanol/water
[6] = Aqueous solubility of the compound; type: physicochemical; conditions: buffer
[7] = Intrinsic clearance in human liver microsomes; type: ADME; conditions: read-out: CLH
[8] = molecular target: T1, Peptidyl-prolyl cis-trans isomerase A; assay: Binding affinity to CypA (unknown origin) by fluorescence titration method

T1 sequence (P62937 whole entry): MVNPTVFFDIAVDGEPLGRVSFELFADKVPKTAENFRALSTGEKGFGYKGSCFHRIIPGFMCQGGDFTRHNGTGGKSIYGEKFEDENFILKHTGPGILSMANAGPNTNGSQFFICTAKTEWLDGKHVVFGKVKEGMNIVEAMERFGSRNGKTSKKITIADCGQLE

Structure (SMILES)	Kd [1] [µM]	further results
C[C@@]1(NCCCc2ccccc2)COCCCCOC[C@@H](C(=O)O)NC(=O)[C@@H]2CCCN2C(=O)CNC1=O	> 600	–
C[C@@]1(NCC2CCOCC2)COCCCCOC[C@@H](C(=O)O)NC(=O)[C@@H]2CCCN2C(=O)CNC1=O	> 600	–
C[C@@]1(NCCc2ccccc2)COCCCCOC[C@@H](C(=O)O)NC(=O)[C@@H]2CCCN2C(=O)CNC1=O.Cl	10.5	fraction unbound [2]: 1; Papp A→B [3]: 0.1 ×10⁻⁶ cm/s; Papp B→A [4]: 0.17 ×10⁻⁶ cm/s; logD [5]: -1.8; solubility [6]: > 1000 µM; microsomal CLint [7]: < 3 µL/min/mg
C[C@@]1(NCC2CCCCC2)COCCCCOC[C@@H](C(=O)O)NC(=O)[C@@H]2CCCN2C(=O)CNC1=O	32	–
C[C@@]1(NC(=O)c2cc(Cl)cc(Cl)c2)COCCCCOC[C@@H](C(=O)O)NC(=O)[C@@H]2CCCN2C(=O)CNC1=O	> 600	–
CCCCCCC(=O)N[C@]1(C)COCCCCOC[C@@H](C(=O)O)NC(=O)[C@@H]2CCCN2C(=O)CNC1=O	> 600	–
C[C@@]1(N)COCCCCOC[C@@H](C(=O)O)NC(=O)[C@@H]2CCCN2C(=O)CNC1=O	127	–
C[C@@]1(NCC2CCCC2)COCCCCOC[C@@H](C(=O)O)NC(=O)[C@@H]2CCCN2C(=O)CNC1=O	> 600	–
C[C@@]1(NCC2CCCCCCC2)COCCCCOC[C@@H](C(=O)O)NC(=O)[C@@H]2CCCN2C(=O)CNC1=O	5.4	–
C[C@@]1(NC(=O)C2CCC2)COCCCCOC[C@@H](C(=O)O)NC(=O)[C@@H]2CCCN2C(=O)CNC1=O	139	–
C[C@@]1(NCc2ccccc2)COCCCCOC[C@@H](C(=O)O)NC(=O)[C@@H]2CCCN2C(=O)CNC1=O	> 600	–
CC(=O)N[C@]1(C)COCCCCOC[C@@H](C(=O)O)NC(=O)[C@@H]2CCCN2C(=O)CNC1=O	> 600	–
C[C@H](NC(=O)CCC(=O)O)C(=O)NCC(=O)N1CCC[C@H]1C(=O)N[C@@H](Cc1ccccc1)C(=O)Nc1ccc([N+](=O)[O-])cc1 (Suc-AGPF-pNA)	–	Kd [8]: 135 µM

— ChEMBL document CHEMBL3862006, “Design and synthesis of peptide-based macrocyclic cyclophilin inhibitors” (Bioorg Med Chem Lett, 2016)
